Assay results from patent publication US7294648B2, “Anthranyl derivatives having an anticholecystokinin activity (anti-cck-1), a process for their preparation, and pharmaceutical use thereof” (Rottapharm S.p.A., priority 2002, dated 2007).

Assays:
CCK-1 receptors = target: T1, CCK-1 receptors (Rattus norvegicus, UniProt P30551); experiment: Inhibition of binding of [125I]-BH-CCK-8 to isolated rat pancreatic acini; conditions: for IC50: 30 minutes at 37° C., at least 3 experiments, read-out: IC50, inhibition of binding of [125I]-BH-CCK-8 to isolated rat pancreatic acini
T1 construct: The pancreatic acini obtained from the outbred male rat pancreas of the Sprague Dawley strain; from tissue; host or cells: isolated pancreatic acini of male Sprague Dawley rats
T1 sequence (P30551 1-444): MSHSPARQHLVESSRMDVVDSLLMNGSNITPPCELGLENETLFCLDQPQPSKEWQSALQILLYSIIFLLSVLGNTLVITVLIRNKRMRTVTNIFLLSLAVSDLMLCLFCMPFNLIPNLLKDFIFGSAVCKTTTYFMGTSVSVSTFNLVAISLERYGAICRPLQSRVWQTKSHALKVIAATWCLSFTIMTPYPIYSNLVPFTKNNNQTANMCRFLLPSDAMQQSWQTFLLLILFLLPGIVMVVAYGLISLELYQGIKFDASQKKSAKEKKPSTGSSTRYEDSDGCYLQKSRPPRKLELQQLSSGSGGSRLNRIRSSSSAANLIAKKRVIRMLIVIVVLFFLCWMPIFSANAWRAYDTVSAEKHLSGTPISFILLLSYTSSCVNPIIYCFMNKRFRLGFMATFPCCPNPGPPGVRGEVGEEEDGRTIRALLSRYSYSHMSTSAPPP
Protocol: The pancreatic acini obtained from the outbred male rat pancreas of the Sprague Dawley strain, were incubated in the presence of radioactive tracers and the compound studied for 30 minutes at 37° C. After having discarded the supernatant, the radioactivity associated with the pellet was determined with a liquid scintillator. The specific binding was determined as the difference between the binding in the absence and in the presence of CCK-8, 1.10^−6M. […] The values of IC50 reported were calculated with the […] of a set of at least 3 experiences for each compound studied.

CCK-2 receptor [1] = target: T2, CCK-2 receptor (Cavia porcellus, UniProt H0VZC5); experiment: Inhibition of the binding of [125I]-BH-CCK-8 to the cortical membrane of guinea pigs; set-up: species or system guinea pig; conditions: 120 minutes at 25° C.; 25 pM marked binder; at least 3 tests
T2 construct: The incubation of the cerebral membranes together with the radioactive tracers and the compounds under study; from tissue; host or cells: cerebral cortex membranes of male albino Hartley guinea pigs
T2 sequence (H0VZC5 1-426): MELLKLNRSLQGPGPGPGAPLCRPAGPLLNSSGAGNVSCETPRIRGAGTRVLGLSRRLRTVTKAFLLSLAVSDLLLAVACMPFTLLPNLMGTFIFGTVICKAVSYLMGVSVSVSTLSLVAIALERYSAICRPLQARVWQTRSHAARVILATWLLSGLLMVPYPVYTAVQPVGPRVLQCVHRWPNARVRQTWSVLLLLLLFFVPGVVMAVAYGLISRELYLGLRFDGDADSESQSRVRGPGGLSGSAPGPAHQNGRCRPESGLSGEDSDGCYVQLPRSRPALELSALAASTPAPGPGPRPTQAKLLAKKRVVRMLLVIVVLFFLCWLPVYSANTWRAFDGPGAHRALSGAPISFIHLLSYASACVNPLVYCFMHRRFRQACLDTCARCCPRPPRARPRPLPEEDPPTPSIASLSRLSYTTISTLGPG
Protocol: (§1) For this purpose binding tests were performed on cerebral cortex of male albino guinea pigs outbred from the Hartley strain, using as marked binder the [^125I]-BH-CCK-8 sulphate, according to the procedure described by Makovec F. [J. Med. Chem. 35, (1992),28].
(§2) The incubation of the cerebral membranes together with the radioactive tracers and the compounds under study was effected on multi-well plates for 120 minutes at 25° C. Each well contained membrane corresponding to about 0.5 mg of proteins/ml and 25 pM of marked binder in a total volume of 250 micro litres. The specific binding was determined as the difference between the binding in the absence and in the presence of CCK-8, 1.10^−6M. At the end of the incubation a rapid filtration of the plate was performed under vacuum and the radioactivity of the individual filters extracted from the wells was measured with a γ-emission counter. The results obtained are shown in Table 3, in which the tested compounds are indicated, the IC50 calculated with the regression method on a set of at least 3 tests for each compound studied and an index derived from the ratio of the affinity obtained for the two types of receptor CCK-2 and CCK-1.

CCK-2 receptor [2] = experiment: as above; set-up: species or system guinea pig; conditions: IC50 CCK-2 (guinea pig cortex) / IC50 CCK-1 (rat pancreatic acini, Table 2)
Protocol: as §1, §2

SMILES	IC50 (CCK-1 receptors) [µM]	IC50 (CCK-2 receptor [1]) [µM]	index derived from the ratio of the affinity obtained for the two types of receptor CCK-2 and CCK-1 (CCK-2 receptor [2])	affinity for the CCK-1 receptors of the pancreatic acini of rat, in words (CCK-1 receptors; summary of Table 2)
O=C(Nc1ccccc1C(=O)NC(CCc1ccc([N+](=O)[O-])cc1)C(=O)O)c1cc2ccccc2[nH]1 (stereo not drawn) [Compound 29]	0.12			
COc1cccc(CCC(NC(=O)c2ccccc2NC(=O)c2cc3ccccc3[nH]2)C(=O)O)c1 (stereo not drawn) [Compound 31]	0.01	3.4	340	
COc1ccccc1CCC(NC(=O)c1ccccc1NC(=O)c1cc2cc(F)ccc2[nH]1)C(=O)O (stereo not drawn) [Compound 32]	0.009	5.68	631.1	nanomolar level
O=C(Nc1ccccc1C(=O)NC(C(=O)O)c1ccccc1)c1cc2ccccc2[nH]1 (stereo not drawn) [Compound 33]	0.26			
CC(NC(=O)c1ccccc1NC(=O)c1cc2ccccc2[nH]1)C(=O)O (stereo not drawn) [Compound 34]	1.96			
CCC(NC(=O)c1ccccc1NC(=O)c1cc2ccccc2n1C)C(=O)O (stereo not drawn) [Compound 35]	3.08			
CCCC(NC(=O)c1ccccc1NC(=O)c1cc2ccccc2n1C)C(=O)O (stereo not drawn) [Compound 36]	0.21			
CCCCC(NC(=O)c1ccccc1NC(=O)c1cc2ccccc2n1C)C(=O)O (stereo not drawn) [Compound 37]	0.17			
CCCCCC(NC(=O)c1ccccc1NC(=O)c1cc2ccccc2[nH]1)C(=O)O (stereo not drawn) [Compound 38]	0.01	> 30	>3000	
CCCCCCC(NC(=O)c1ccccc1NC(=O)c1cc2ccccc2[nH]1)C(=O)O (stereo not drawn) [Compound 39]	0.02	> 30	>1500	
CCCCCCCC(NC(=O)c1ccccc1NC(=O)c1cc2ccccc2[nH]1)C(=O)O (stereo not drawn) [Compound 40]	0.24			
CC(C)C(NC(=O)c1ccccc1NC(=O)c1cc2ccccc2[nH]1)C(=O)O (stereo not drawn) [Compound 41]	0.2	27.4	137	
CC(C)CC(NC(=O)c1ccccc1NC(=O)c1cc2ccccc2[nH]1)C(=O)O (stereo not drawn) [Compound 42]	0.06			
CC(C)CCC(NC(=O)c1ccccc1NC(=O)c1cc2ccccc2[nH]1)C(=O)O (stereo not drawn) [Compound 43]	0.08			
CC(C)CCCC(NC(=O)c1ccccc1NC(=O)c1cc2ccccc2[nH]1)C(=O)O (stereo not drawn) [Compound 44]	0.04			
CC(C)CCCCC(NC(=O)c1ccccc1NC(=O)c1cc2ccccc2[nH]1)C(=O)O (stereo not drawn) [Compound 45]	0.14			
CCC(CC)CC(NC(=O)c1ccccc1NC(=O)c1cc2ccccc2[nH]1)C(=O)O (stereo not drawn) [Compound 46]	0.03	2.67	89	
O=C(Nc1ccccc1C(=O)NC(CC1CCCCC1)C(=O)O)c1cc2ccccc2[nH]1 (stereo not drawn) [Compound 48]	0.02	1.22	61	
O=C(Nc1ccccc1C(=O)NC(CCC1CCCCC1)C(=O)O)c1cc2ccccc2[nH]1 (stereo not drawn) [Compound 49]	0.04			
O=C(Nc1ccccc1C(=O)NC(CCCC1CCCCC1)C(=O)O)c1cc2ccccc2[nH]1 (stereo not drawn) [Compound 50]	0.17			
CSCCC(NC(=O)c1ccccc1NC(=O)c1cc2ccccc2[nH]1)C(=O)O (stereo not drawn) [Compound 51]	0.04			
O=C(Nc1ccccc1C(=O)NC(CSc1ccccc1)C(=O)O)c1cc2ccccc2[nH]1 (stereo not drawn) [Compound 52]	0.62			
O=C(Nc1ccccc1C(=O)NC(CSC12CC3CC(CC(C3)C1)C2)C(=O)O)c1cc2ccccc2[nH]1 (stereo not drawn) [Compound 53]	0.03			
O=C(NC(Cc1ccccc1)C(=O)O)c1ccccc1NC(=O)c1c[nH]c2ccccc12 (stereo not drawn) [Compound 55]	1.95			
